# Key:
# Format in all cases: functional
# NCI-H2122 [1] = assay: Antitumor activity against human NCI-H2122 cells harboring KRAS […] mutant xenografted in BALB/c nude mouse assessed as tumor growth inhibition at 15 mg/kg, po administered once daily and measured on day 27 in presence of adagrasib; settings: NCI-H2122, 648 h, time 27 day, read-out: TGI
# NCI-H2122 [2] = assay: Antitumor activity against human NCI-H2122 cells harboring KRAS […] mutant xenografted in BALB/c nude mouse assessed as T/C ratio at 15 mg/kg, po administered twice daily and measured on day 27 relative to control; settings: time 27 day
# NCI-H2122 [3] = assay: Antitumor activity against human NCI-H2122 cells harboring KRAS […] mutant xenografted in BALB/c nude mouse assessed as T/C ratio at 15 mg/kg, po administered once daily and measured on day 27 in presence of adagrasib relative to control; settings: time 27 day
# NCI-H2122 [4] = assay: Antitumor activity against human NCI-H2122 cells harboring KRAS […] mutant xenografted in BALB/c nude mouse assessed as tumor growth inhibition at 15 mg/kg, po administered twice daily and measured on day 27; settings: NCI-H2122, 648 h, time 27 day, read-out: TGI
# NCI-H2122 [5] = assay: Antitumor activity against human NCI-H2122 cells harboring KRAS […] mutant xenografted in BALB/c nude mouse assessed as tumor volume at 15 mg/kg, po administered once daily and measured on day 27 in presence of adagrasib (reference value: 1559.54 +/- 225.48 mm3); settings: time 27 day
# NCI-H2122 [6] = assay: Antitumor activity against human NCI-H2122 cells harboring KRAS […] mutant xenografted in BALB/c nude mouse assessed as tumor volume at 15 mg/kg, po administered twice daily and measured on day 27 (reference value: 1559.54 +/- 225.48 mm3); settings: time 27 day
# NCI-H2122 [7] = assay: Antitumor activity against human NCI-H2122 cells harboring KRAS […] mutant xenografted in BALB/c nude mouse assessed as tumor growth inhibition at 100 mg/kg, po administered once daily and measured on day 27; settings: NCI-H2122, 648 h, time 27 day, read-out: TGI
# NCI-H2122 [8] = assay: Antitumor activity against human NCI-H2122 cells harboring KRAS […] mutant xenografted in BALB/c nude mouse assessed as T/C ratio at 100 mg/kg, po administered once daily and measured on day 27 relative to control; settings: time 27 day
# NCI-H2122 [9] = assay: Antitumor activity against human NCI-H2122 cells harboring KRAS […] mutant xenografted in BALB/c nude mouse assessed as tumor volume at 100 mg/kg, po administered once daily and measured on day 27 (reference value: 1559.54 +/- 225.48 mm3); settings: time 27 day
# NCI-H2122 [10] = assay: Antitumor activity against human NCI-H2122 cells harboring KRAS […] mutant xenografted in BALB/c nude mouse assessed as T/C ratio at 60 mg/kg, po administered once daily and measured on day 27 in presence of adagrasib relative to control; settings: time 27 day
# NCI-H2122 [11] = assay: Antitumor activity against human NCI-H2122 cells harboring KRAS […] mutant xenografted in BALB/c nude mouse assessed as T/C ratio at 60 mg/kg, po administered once daily and measured on day 27 in presence of sotorasib relative to control; settings: time 27 day
# NCI-H2122 [12] = assay: Antitumor activity against human NCI-H2122 cells harboring KRAS […] mutant xenografted in BALB/c nude mouse assessed as T/C ratio at 60 mg/kg, po administered twice daily and measured on day 27 relative to control; settings: time 27 day
# NCI-H2122 [13] = assay: Antitumor activity against human NCI-H2122 cells harboring KRAS […] mutant xenografted in BALB/c nude mouse assessed as tumor volume at 60 mg/kg, po administered twice daily and measured on day 27 (reference value: 1559.54 +/- 225.48 mm3); settings: time 27 day
# NCI-H2122 [14] = assay: Antitumor activity against human NCI-H2122 cells harboring KRAS […] mutant xenografted in BALB/c nude mouse assessed as tumor growth inhibition at 60 mg/kg, po administered once daily and measured on day 27 in presence of sotorasib; settings: NCI-H2122, 648 h, time 27 day, read-out: TGI
# NCI-H2122 [15] = assay: Antitumor activity against human NCI-H2122 cells harboring KRAS […] mutant xenografted in BALB/c nude mouse assessed as tumor growth inhibition at 60 mg/kg, po administered once daily and measured on day 27 in presence of adagrasib; settings: NCI-H2122, 648 h, time 27 day, read-out: TGI
# NCI-H2122 [16] = assay: Antitumor activity against human NCI-H2122 cells harboring KRAS […] mutant xenografted in BALB/c nude mouse assessed as tumor growth inhibition at 60 mg/kg, po administered twice daily and measured on day 27; settings: NCI-H2122, 648 h, time 27 day, read-out: TGI
# NCI-H2122 [17] = assay: Antitumor activity against human NCI-H2122 cells harboring KRAS […] mutant xenografted in BALB/c nude mouse assessed as tumor volume at 60 mg/kg, po administered once daily and measured on day 27 in presence of sotorasib (reference value: 1559.54 +/- 225.48 mm3); settings: time 27 day
# NCI-H2122 [18] = assay: Antitumor activity against human NCI-H2122 cells harboring KRAS […] mutant xenografted in BALB/c nude mouse assessed as tumor volume at 60 mg/kg, po administered once daily and measured on day 27 in presence of adagrasib (reference value: 1559.54 +/- 225.48 mm3); settings: time 27 day
compound,measurement,setting,value
Cn1cncc1[C@@]1(N)c2ccc(C#N)c(c2)COc2cccc(c2)-c2cc(C#N)nc3ccc1cc23,inhibition in vivo at 15 mg/kg,NCI-H2122 [1],88%
same,T/C,NCI-H2122 [2],68.13%
same,T/C,NCI-H2122 [3],12%
same,inhibition in vivo at 15 mg/kg,NCI-H2122 [4],31.9%
same,Activity,NCI-H2122 [5],187.07 mm3
same,Activity,NCI-H2122 [6],1062.47 mm3
C=C(F)C(=O)N1CCN(c2nc(OC[C@@H]3CCCN3C)nc3c2CCN(c2cccc4cccc(Cl)c24)C3)C[C@@H]1CC#N [ADAGRASIB],inhibition in vivo at 100 mg/kg,NCI-H2122 [7],61.5%
same,T/C,NCI-H2122 [8],38.49%
same,Activity,NCI-H2122 [9],600.26 mm3
C=CC(=O)N1CCN(c2nc(=O)n(-c3c(C)ccnc3C(C)C)c3nc(-c4c(O)cccc4F)c(F)cc23)[C@@H](C)C1 [SOTORASIB],inhibition in vivo at 100 mg/kg,NCI-H2122 [7],58.8%
same,T/C,NCI-H2122 [10],41.25%
same,Activity,NCI-H2122 [9],643.34 mm3
Cn1cncc1[C@@](N)(c1ccc(Cl)cc1)c1ccc2c(c1)c(-c1cccc(Cl)c1)cc(=O)n2C [TIPIFARNIB],T/C,NCI-H2122 [11],14.99%
same,T/C,NCI-H2122 [12],64.15%
same,Activity,NCI-H2122 [13],1000.38 mm3
same,inhibition in vivo at 60 mg/kg,NCI-H2122 [14],85%
same,inhibition in vivo at 60 mg/kg,NCI-H2122 [15],88.6%
same,inhibition in vivo at 60 mg/kg,NCI-H2122 [16],35.9%
same,T/C,NCI-H2122 [10],11.38%
same,Activity,NCI-H2122 [17],233.84 mm3
same,Activity,NCI-H2122 [18],177.5 mm3
